Common to all, as to assay: NCI anticancer screen, dose series, 48 h
In assay [1] the test system is 786-0.
For assay [2], the system named is A498.
In assay [3] the test system is A549.
Assay [4] concerns HL-60.
Assay [5] has as its system HOP-92.
Assay [6] relates to Hs-578T.
For assay [7], the system named is K562.
Assay [8] relates to MDA-N.
In assay [9] the test system is Malme-3M.
The test system of assay [10] is NCI-H226.
Assay [11] deals with NCI-H23.
Assay [12] concerns NCI-H522.
Assay [13] has as its system PC-3.
Assay [14] relates to RPMI-8226.
For assay [15], the system named is SK-MEL-28.
Assay [16] has as its system SNB-19.
For assay [17], the system named is SNB-75.
Assay [18] deals with U-251.
Assay [19] deals with UACC-257.
The test system of assay [20] is UACC-62.

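Growth conditions: 96-well plates. Treatment: test compound, 48 hours, 5 concentrations. Analysis: linear interpolation between bracketing concentrations; unreached endpoints set to highest concentration. At the GI50, growth is halved.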 Active and inactive are the calls of the source. Cut-off read from the data, not from the text of the source: active = GI50 up to about 1.1 µM and inactive = higher.

In the case of `CCOC(=O)C1(Cc2ccccc2)CCN(C(=O)c2ccccc2)C2C1C2(Cl)Cl` (centres undefined), the GI50 was 20.1 µM (inactive) in [1]; 18.8 µM (inactive) in assay [2]; 30.1 µM (inactive) in [3]; 12.2 µM (inactive) in assay [4]; 26.6 µM (inactive) in [5]; 26.7 µM (inactive) in assay [6]. Besides, the GI50 in assay [7] is 27 µM (inactive); in [8] it was 17.9 µM (inactive); in [9] it was 21.4 µM (inactive); in assay [10] it was 23.6 µM (inactive); in assay [11], 23.5 µM (inactive); in assay [12] it was 18.1 µM (inactive). The GI50 in assay [13] was 16.7 µM (inactive); in assay [14] it was 13.2 µM (inactive); in assay [15] it was 21.1 µM (inactive); in [16], 36.1 µM (inactive); in [17], 23.1 µM (inactive); in assay [18], 15.9 µM (inactive). Further, the GI50 was 15.2 µM (inactive) in assay [19] and 12 µM (inactive) in assay [20].

On to `c1ccc(CC(Nc2cccnc2)c2ccccc2)cc1` (centres undefined), for which the GI50 in assay [1] is 21.3 µM (inactive); in assay [2], 34 µM (inactive); in [3], 25.6 µM (inactive); in assay [4], 23.9 µM (inactive); in [5], 17.4 µM (inactive); in [6] it was 37.2 µM (inactive). In addition, the GI50 is 17.5 µM (inactive) in assay [7]; 20.1 µM (inactive) in [8]; 29 µM (inactive) in assay [9]; 24.2 µM (inactive) in assay [10]; 26.7 µM (inactive) in assay [11]; 22.4 µM (inactive) in [12]. In addition, the GI50 is 24.8 µM (inactive) in assay [13]; 17 µM (inactive) in assay [14]; 31 µM (inactive) in [15]; 30.8 µM (inactive) in assay [16]; 24.9 µM (inactive) in assay [17]; 19.5 µM (inactive) in [18]. The GI50 in assay [19] is 22 µM (inactive); in assay [20] it was 16.6 µM (inactive).

Take `COc1ccc2c(c1)c(=O)c1c(NCCNCCO)ccc3c(=O)n(CCN(C)C)c(=O)n2c31`: the GI50 was < 0.0117 µM (active) in assay [1]; 0.116 µM (active) in assay [2]; < 0.0255 µM (active) in assay [3]; > 100 µM (inactive) in assay [4]; 0.0766 µM (active) in assay [5]; 0.132 µM (active) in assay [6]. Moreover, the GI50 in [7] is 0.0333 µM (active); in assay [8] it was 0.112 µM (active); in assay [9] it was 0.0989 µM (active); in assay [10] it was 0.148 µM (active); in assay [11] it was 0.0637 µM (active); in assay [12], < 0.0182 µM (active). Further, the GI50 in [13] was 0.0836 µM (active); in assay [14], 0.0912 µM (active); in assay [15], 0.475 µM (active); in [16], 0.07 µM (active); in [17], 0.0933 µM (active); in assay [18] it was < 0.0374 µM (active). The GI50 in assay [19] was 0.261 µM (active); in assay [20], 0.0662 µM (active).

With `N#CC1(C#N)[C@@H]2CCC=C(Sc3ccccc3)[C@@H]21`, the GI50 in assay [1] is 16.1 µM (inactive); in assay [2], 31.7 µM (inactive); in assay [3], 23.4 µM (inactive); in [4], 8.59 µM (inactive); in [5], 14.9 µM (inactive); in [6], > 100 µM (inactive). Besides, the GI50 in [7] is 6.71 µM (inactive); in assay [8] it was 13.9 µM (inactive); in assay [9], 16.9 µM (inactive); in assay [10], 13.9 µM (inactive); in assay [12] it was 10.8 µM (inactive); in assay [13], 14.3 µM (inactive). In addition, the GI50 in assay [14] was 12.9 µM (inactive); in assay [15], 15 µM (inactive); in [16] it was 23.9 µM (inactive); in assay [17], 20.9 µM (inactive); in assay [18] it was 16.1 µM (inactive); in assay [19], 17.5 µM (inactive). For the same compound, in assay [20], the GI50 is 18.4 µM (inactive).

Turning to `c1ccc(CN2COc3c(ccc4c5c(ccc34)CN(Cc3ccccc3)CO5)C2)cc1`, the GI50 in assay [1], in assay [2], in assay [3], in [4], in assay [5] and in assay [6] was > 100 µM (inactive) throughout. Besides, the GI50 in assay [7] was > 100 µM (inactive); in [8], > 100 µM (inactive); in [9] it was > 100 µM (inactive); in assay [10], > 76.6 µM (inactive); in assay [11] it was > 100 µM (inactive); in assay [12], > 100 µM (inactive). Besides, the GI50 in [13], in assay [14], in assay [15], in [16], in assay [17] and in assay [18] was > 100 µM (inactive) in each case. In addition, the GI50 in [19] and in assay [20] was > 100 µM (inactive) throughout.

As for `CC(=O)O/C(=C(/C#N)C(=O)O)C1C(C(=O)O)C(c2ccccc2[N+](=O)[O-])C=C(c2ccco2)N1c1ccncc1` (centres undefined), the GI50 in assay [1] was 2.82 µM (inactive); in [2], 11.2 µM (inactive); in assay [3], 3.41 µM (inactive); in assay [4], 2.75 µM (inactive); in assay [5], 16 µM (inactive); in [6], 8.93 µM (inactive). In addition, the GI50 in [7] was 2.31 µM (inactive); in assay [8], 2.81 µM (inactive); in assay [9], 8.43 µM (inactive); in assay [10] it was 4.63 µM (inactive); in assay [11], 5.45 µM (inactive); in [12], 2.09 µM (inactive). The GI50 is 6.4 µM (inactive) in assay [13]; 1.68 µM (inactive) in [14]; 10.4 µM (inactive) in assay [15]; 11.8 µM (inactive) in [16]; 6.38 µM (inactive) in assay [17]; 2.11 µM (inactive) in assay [18]. In addition, the GI50 in assay [19] is 3.9 µM (inactive); in assay [20] it was 7.52 µM (inactive).

Take `COC(=O)c1c(C)cccc1/C=C1\Cc2ccc(C)c(C)c2C1=O`: the GI50 in [1] is > 100 µM (inactive); in assay [2], 31 µM (inactive); in assay [3] it was > 100 µM (inactive); in assay [4] it was > 100 µM (inactive); in [5] it was 74.3 µM (inactive); in [6] it was > 100 µM (inactive). The GI50 in assay [7] was 8.32 µM (inactive); in assay [8], > 100 µM (inactive); in assay [9], > 100 µM (inactive); in [10] it was > 100 µM (inactive); in [11], > 100 µM (inactive); in assay [12], 78.9 µM (inactive). The GI50 in assay [13] was > 100 µM (inactive); in assay [14], 56.2 µM (inactive); in assay [15] it was > 100 µM (inactive); in [16], 52.5 µM (inactive); in assay [17], 40.6 µM (inactive); in assay [18], 48.9 µM (inactive). Further, the GI50 was > 100 µM (inactive) in assay [19] and 14.5 µM (inactive) in assay [20].

As to `C[C@@H](CC(=O)OCc1ccccc1)OC1OC(COC(=O)C(C)(C)C)C(OC(=O)C(C)(C)C)C(OC(=O)C(C)(C)C)C1OC(=O)C(C)(C)C` (some centres undefined), the GI50 in assay [1], in [2], in assay [3], in assay [4], in assay [5] and in assay [6] was > 100 µM (inactive) each time. Also, the GI50 is > 100 µM (inactive) in assay [7]; 36 µM (inactive) in [8]; > 100 µM (inactive) in [9]; > 100 µM (inactive) in assay [10]; > 100 µM (inactive) in assay [11]; > 100 µM (inactive) in assay [12]. Moreover, the GI50 in assay [13], in assay [14], in assay [15], in assay [16], in assay [17] and in assay [18] was > 100 µM (inactive) throughout. In addition, the GI50 in assay [19] and in assay [20] was > 100 µM (inactive) throughout.

Take `c1ccc(CCCN2C3CCC2CN(CCOC(c2ccccc2)c2ccccc2)C3)cc1`: the GI50 in assay [1] was 10 µM (inactive); in assay [2], 10.1 µM (inactive); in assay [3], 13.3 µM (inactive); in assay [4], 5.69 µM (inactive); in [5] it was 12.5 µM (inactive); in assay [6] it was 13.9 µM (inactive). In addition, the GI50 is 3.91 µM (inactive) in assay [7]; 13.2 µM (inactive) in [8]; 12.5 µM (inactive) in assay [9]; 11.3 µM (inactive) in [10]; 11.1 µM (inactive) in assay [11]; 10.9 µM (inactive) in assay [12]. Also, the GI50 in assay [13] was 6.43 µM (inactive); in [14] it was 3.11 µM (inactive); in assay [15] it was 13.3 µM (inactive); in assay [16] it was 14.6 µM (inactive); in assay [17], 5.41 µM (inactive); in [18], 8.04 µM (inactive). The GI50 in assay [19] is 8.49 µM (inactive); in assay [20], 12.9 µM (inactive).

Consider `CC1CCC2(C(=O)O)CCC3(C)C(=CCC4C5(C)CC(O)C(O)C(C)(CO)C5C(O)CC43C)C2C1C` (centres undefined), for which the GI50 in assay [1] was 3.29 µM (inactive); in assay [2] it was 24.3 µM (inactive); in [3], > 100 µM (inactive); in assay [4], 20.2 µM (inactive); in assay [5] it was 20.8 µM (inactive); in [6] it was 19.4 µM (inactive). Moreover, the GI50 in assay [7] was 41.1 µM (inactive); in assay [8], 11.1 µM (inactive); in assay [9], 47.5 µM (inactive); in [10] it was > 79.6 µM (inactive); in [11] it was 65.8 µM (inactive); in assay [12], 17.5 µM (inactive). For the same compound, the GI50 in assay [13] was 83.6 µM (inactive); in assay [14], 33.4 µM (inactive); in assay [15], 30.8 µM (inactive); in [16], 22.7 µM (inactive); in assay [17] it was 28.1 µM (inactive); in assay [18] it was 21.6 µM (inactive). In addition, the figures for the GI50 in assay [19] and in assay [20] were 98.4 µM (inactive) and 21.3 µM (inactive), respectively.
